Reference: ChEMBL document CHEMBL4477157, “Iridoid Glucosides and Diterpenoids from Caryopteris glutinosa” (J Nat Prod, 2016)

What was measured:
KGN [1] = experiment: Induction of estrogen biosynthesis in human KGN cells assessed as upregulation of E2 concentration at 25 uM preincubated for 24 hrs followed by testosterone addition for 24 hrs by magnetic particle based ELISA; type: functional
KGN [2] = experiment: Induction of estrogen biosynthesis in human KGN cells assessed as upregulation of E2 concentration preincubated for 24 hrs followed by testosterone addition for 24 hrs by magnetic particle based ELISA; type: functional, cell-based
KGN [3] = experiment: Upregulation of aromatase expression in human KGN cells at 10 to 50 uM after 24 hrs by Western blot analysis; type: functional

EC50 (KGN [2]) [µM]	Structure (SMILES)	fold change (FC) (KGN [1])	Activity (KGN [2])	fold change (FC) (KGN [3])
11.1	COc1cc(/C=C/C(=O)OC[C@H]2O[C@@H](O[C@@H]3OC=C[C@@]4(O)[C@H](O)C[C@](C)(OC(C)=O)[C@@H]34)[C@H](O)[C@@H](O)[C@@H]2O)cc(OC)c1O	2	Dose-dependent effect	1.5
8	CC(=O)CC[C@@]1(C)[C@H](C)CC[C@@]2(C)C(CO)=CCC[C@H]12	2	Dose-dependent effect	1.5
